SMILES strings stand for the structures. Values after ≈ are worked out from the molar mass of the structure shown.

These results are taken from ChEMBL document CHEMBL4184230, “Design, synthesis and biological evaluation of novel pyrazolo-oxothiazolidine derivatives as antiproliferative agents against human lung cancer cell line A549” (Bioorg Med Chem Lett, 2018).

This assay relates to A549. Description: Antiproliferative activity against human A549 cells incubated for 96 hrs by MTT assay. As to conditions: A549, 96 h. It is filed as functional, cell-based. Background: Formazan colour is commonly taken as a measure of viable cells.

The IC50 is the concentration that gives 50% inhibition. A lower IC50 goes with inhibition by little substance. Molecule `COC(=O)/C=C1/SC(N2N=C(c3cc4ccccc4o3)CC2c2ccc(OC)c(OC)c2)=NC1=O` (stereo unspecified) yielded an IC50 of 0.967 µg/mL (≈ 1.97 µM).
Molecule `CCOC(=O)/C=C1/SC(N2N=C(c3cc4ccccc4o3)CC2c2ccc(OC)cc2)=NC1=O` (stereo unspecified) yielded an IC50 of 1.21 µg/mL (≈ 2.54 µM). This IC50 and that of the molecule before are within 1.5-fold of each other.
Turning to `CCOC(=O)/C=C1/SC(N2N=C(c3cc4ccccc4o3)CC2c2ccc(Cl)cc2)=NC1=O` (stereo unspecified), the IC50 is > 5 µg/mL.
Molecule `COC(=O)/C=C1/SC(N2N=C(c3cc4ccccc4o3)CC2c2cccc(Br)c2)=NC1=O` (stereo unspecified) returned an IC50 of 4.29 µg/mL (≈ 8.41 µM).
Regarding `CCOC(=O)/C=C1/SC(N2N=C(c3cc4ccccc4o3)CC2c2cccc(Br)c2)=NC1=O` (stereo unspecified), the IC50 was > 5 µg/mL.
The figure for `CCOC(=O)/C=C1/SC(N2N=C(c3cc4ccccc4o3)CC2c2ccc(F)cc2)=NC1=O` (stereo unspecified) is 0.93 µg/mL (≈ 2.01 µM).
In turn, `COC(=O)/C=C1/SC(N2N=C(c3cc4ccccc4o3)CC2c2ccc(Cl)cc2)=NC1=O` (stereo unspecified) displayed an IC50 of 1.08 µg/mL (≈ 2.31 µM).
As for `COC(=O)/C=C1/SC(N2N=C(c3cc4ccccc4o3)CC2c2ccc(F)cc2)=NC1=O` (stereo unspecified), the IC50 is 0.808 µg/mL (≈ 1.8 µM).
With `COC(=O)/C=C1/SC(N2N=C(c3cc4ccccc4o3)CC2c2ccc(OC)cc2)=NC1=O` (stereo unspecified), inhibition was half-maximal at 2.44 µg/mL (≈ 5.3 µM) (IC50).
Regarding `CCOC(=O)/C=C1/SC(N2N=C(c3cc4ccccc4o3)CC2c2ccc(OC)c(OC)c2)=NC1=O` (stereo unspecified), the IC50 came out at 3.42 µg/mL (≈ 6.76 µM).
The molecule `CNC(=O)c1cc(Oc2ccc(NC(=O)Nc3ccc(Cl)c(C(F)(F)F)c3)cc2)ccn1` [SORAFENIB] displayed a 50% inhibitory concentration (IC50) of 3.78 µg/mL (≈ 8.13 µM).
